How the values were obtained:
Conditions in all cases: 72 h
U2OS [1] = experiment: fractional viability (live cells / total cells); higher = less cell death
Description: (§1)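 U2OS::Nuc-mKate2 cells seeded in 96-well plates and treated with eight- to ten-point half-log or log dilutions of drug in the presence of 50 nM SYTOX Green. Live (mKate2+) and dead (SYTOX+) cells were counted by IncuCyte STACK live-cell microscopy at 72 h; biological triplicates. GR is the normalised growth-rate inhibition value (Hafner 2016; 1 = untreated growth, <0 = population shrinking). FV is live/(live+dead) cells, not normalised.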

U2OS [2] = experiment: GRmin (fitted minimal GR value at highest effect) (GR value (dimensionless)); higher = less efficacious
Description: (§2)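 U2OS cells treated with full dose titrations of drug; live and dead cells counted by STACK microscopy (mKate2 nuclei, SYTOX Green) at 72 h, biological triplicates. GR and FV dose responses were fitted with 4-parameter logistic models (GR lower bound -1). GRADE (0-100) is the rescaled angle of a linear fit of FV versus GR at doses with GR >= 0, giving the percentage of the response due to cell death.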

U2OS [3] = experiment: normalized growth rate inhibition value (GR) relative to untreated cells (GR value (dimensionless, 1 = untreated growth)); higher = less growth inhibition
Description: as §1

U2OS [4] = experiment: GR50 (concentration giving GR = 0.5)
Description: as §2

U2OS [5] = experiment: drug GRADE (percent of response due to cell death) (% (0-100)); higher = more death-driven response
Description: as §2

COc1cc([C@@H]2c3cc4c(cc3[C@@H](O[C@@H]3O[C@@H]5CO[C@@H](C)O[C@H]5[C@H](O)[C@H]3O)[C@H]3COC(=O)[C@H]23)OCO4)cc(OC)c1O [Etoposide]
Conditions | fractional viability, U2OS [1] | normalized growth rate inhibition value, U2OS [3]
0.00100578 µM | 0.99 | 0.934
0.00317827 µM | 0.988 | 1.02
0.0100433 µM | 0.993 | 0.895
0.0317369 µM | 0.989 | 0.785
0.100289 µM | 0.975 | 0.524
0.316912 µM | 0.952 | 0.11
1.00144 µM | 0.96 | -0.0401
3.16456 µM | 0.922 | -0.0127
10 µM | 0.628 | -0.155

Conditions | GR50 [µM] | GRmin | drug GRADE
U2OS [2] | – | -0.106 | –
U2OS [4] | 0.0978 | – | –
U2OS [5] | – | – | 8.6

CO[C@H]1C[C@@H]2CC[C@@H](C)[C@@](O)(O2)C(=O)C(=O)N2CCCC[C@H]2C(=O)O[C@H]([C@H](C)C[C@@H]2CC[C@@H](OCCO)[C@H](OC)C2)CC(=O)[C@H](C)/C=C(\C)[C@@H](O)[C@@H](OC)C(=O)[C@H](C)C[C@H](C)/C=C/C=C/C=C/1C [Everolimus]
Conditions | fractional viability, U2OS [1] | normalized growth rate inhibition value, U2OS [3]
0.00100578 µM | 0.994 | 0.653
0.00317827 µM | 0.992 | 0.758
0.0100433 µM | 0.991 | 0.721
0.0317369 µM | 0.994 | 0.653
0.100289 µM | 0.993 | 0.738
0.316912 µM | 0.994 | 0.79
1.00144 µM | 0.989 | 0.598
3.16456 µM | 0.99 | 0.524
10 µM | 0.984 | 0.515

Conditions | GRmin | drug GRADE
U2OS [2] | -0.334 | –
U2OS [5] | – | 0.964

CC1CCc2cc(F)cc3c(=O)c(C(=O)O)cn1c23 (stereo not drawn) [Flumequine]
Conditions | fractional viability, U2OS [1] | normalized growth rate inhibition value, U2OS [3]
0.01 µM | 0.98 | 0.959
0.0316 µM | 0.971 | 1.02
0.1 µM | 0.981 | 0.966
0.316 µM | 0.977 | 0.928
1 µM | 0.971 | 0.907
3.16 µM | 0.974 | 0.962
10 µM | 0.977 | 1.1
31.6 µM | 0.976 | 0.969

Conditions | GRmin
U2OS [2] | 1

O=C(O)CCNc1cc(N2CCc3ccccc3CC2)nc(-c2ccccn2)n1 [GSKJ1]
Conditions | fractional viability, U2OS [1] | normalized growth rate inhibition value, U2OS [3]
0.01 µM | 0.979 | 1.03
0.0316 µM | 0.981 | 0.985
0.1 µM | 0.98 | 0.962
0.316 µM | 0.976 | 1.06
1 µM | 0.985 | 1.02
3.16 µM | 0.974 | 0.996
10 µM | 0.975 | 1.01
31.6 µM | 0.974 | 0.83

Conditions | GRmin
U2OS [2] | 0.339

C=CCc1ccc(O)c(-c2ccc(O)c(CC=C)c2)c1 [Honokiol]
Conditions | fractional viability, U2OS [1] | normalized growth rate inhibition value, U2OS [3]
0.01 µM | 0.978 | 1.04
0.0316 µM | 0.974 | 1.07
0.1 µM | 0.978 | 0.96
0.316 µM | 0.983 | 1.03
1 µM | 0.978 | 0.897
3.16 µM | 0.979 | 0.981
10 µM | 0.981 | 0.95
31.6 µM | 0.969 | 0.774

CC(C)NC[C@@H](C(=O)N1CCN(c2ncnc3c2[C@H](C)C[C@H]3O)CC1)c1ccc(Cl)cc1 [Ipatasertib]
Conditions | fractional viability, U2OS [1] | normalized growth rate inhibition value, U2OS [3]
0.00100578 µM | 0.99 | 0.9
0.00317827 µM | 0.986 | 0.946
0.0100433 µM | 0.986 | 1.14
0.0317369 µM | 0.983 | 0.981
0.100289 µM | 0.986 | 0.885
0.316912 µM | 0.988 | 0.945
1.00144 µM | 0.987 | 0.88
3.16456 µM | 0.976 | 0.824
10 µM | 0.947 | 0.548

Conditions | drug GRADE
U2OS [5] | 6.49

CC1(C)CCC(c2ccc(Cl)cc2)=C(CN2CCN(c3ccc(C(=O)NS(=O)(=O)c4ccc(N[C@H](CCN5CCOCC5)CSc5ccccc5)c(S(=O)(=O)C(F)(F)F)c4)cc3)CC2)C1 [Navitoclax]
Conditions | fractional viability, U2OS [1] | normalized growth rate inhibition value, U2OS [3]
0.01 µM | 0.98 | 0.981
0.0316 µM | 0.983 | 1.04
0.1 µM | 0.978 | 0.941
0.316 µM | 0.978 | 1.02
1 µM | 0.978 | 0.95
3.16 µM | 0.972 | 0.94
10 µM | 0.947 | 0.841
31.6 µM | 0.887 | 0.891

Conditions | GRmin
U2OS [2] | 0.866

O=C(c1cc(Cc2n[nH]c(=O)c3ccccc23)ccc1F)N1CCN(C(=O)C2CC2)CC1 [Olaparib]
Conditions | fractional viability, U2OS [1] | normalized growth rate inhibition value, U2OS [3]
0.00100578 µM | 0.992 | 1.03
0.00317827 µM | 0.988 | 0.94
0.0100433 µM | 0.989 | 1.03
0.0317369 µM | 0.992 | 1.02
0.100289 µM | 0.99 | 0.964
0.316912 µM | 0.989 | 0.956
1.00144 µM | 0.987 | 0.922
3.16456 µM | 0.982 | 0.85
10 µM | 0.96 | 0.511

Conditions | drug GRADE
U2OS [5] | 6.58

C=CCNc1ncnc2ccc(Br)cc12 [SMER28]
Conditions | fractional viability, U2OS [1] | normalized growth rate inhibition value, U2OS [3]
0.01 µM | 0.977 | 1.03
0.0316 µM | 0.977 | 1.09
0.1 µM | 0.98 | 0.962
0.316 µM | 0.979 | 1.02
1 µM | 0.982 | 1.02
3.16 µM | 0.975 | 0.992
10 µM | 0.973 | 0.909
31.6 µM | 0.977 | 0.866

Conditions | GRmin
U2OS [2] | 0.864

Cc1cc(C(C)Nc2ccccc2)c2nc(N3CCOCC3)cc(=O)n2c1 (stereo not drawn) [TGX221]
Conditions | fractional viability, U2OS [1] | normalized growth rate inhibition value, U2OS [3]
0.00100578 µM | 0.988 | 1.1
0.00317827 µM | 0.986 | 1.06
0.0100433 µM | 0.988 | 1.04
0.0317369 µM | 0.986 | 1.02
0.100289 µM | 0.988 | 0.94
0.316912 µM | 0.99 | 1.02
1.00144 µM | 0.986 | 0.955
3.16456 µM | 0.986 | 1.08
10 µM | 0.977 | 1

Conditions | GRmin
U2OS [2] | 0.951

Cc1nc(-c2cn3c(n2)-c2ccc(-c4cnn(C(C)(C)C(N)=O)c4)cc2OCC3)n(C(C)C)n1 [Taselisib]
Conditions | fractional viability, U2OS [1] | normalized growth rate inhibition value, U2OS [3]
0.00100578 µM | 0.987 | 1
0.00317827 µM | 0.983 | 0.924
0.0100433 µM | 0.979 | 0.852
0.0317369 µM | 0.973 | 0.765
0.100289 µM | 0.964 | 0.83
0.316912 µM | 0.952 | 0.69
1.00144 µM | 0.959 | 0.669
3.16456 µM | 0.937 | 0.604
10 µM | 0.856 | 0.389

Conditions | GR50 [µM] | drug GRADE
U2OS [4] | 4.98 | –
U2OS [5] | – | 24.5

Cn1nnc2c(C(N)=O)ncn2c1=O [Temozolamide]
Conditions | fractional viability, U2OS [1] | normalized growth rate inhibition value, U2OS [3]
0.01 µM | 0.982 | 0.992
0.0316 µM | 0.982 | 1.07
0.1 µM | 0.981 | 0.975
0.316 µM | 0.977 | 1.05
1 µM | 0.975 | 0.984
3.16 µM | 0.978 | 0.894
10 µM | 0.98 | 0.954
31.6 µM | 0.975 | 1.02

Conditions | GRmin
U2OS [2] | 0.955

Nc1ccc(-c2ccc3ncc4ccc(=O)n(-c5cccc(C(F)(F)F)c5)c4c3c2)cn1 [Torin2]
Conditions | fractional viability, U2OS [1] | normalized growth rate inhibition value, U2OS [3]
0.000100578 µM | 0.988 | 0.795
0.000317827 µM | 0.985 | 0.854
0.00100433 µM | 0.986 | 0.924
0.00317369 µM | 0.988 | 0.826
0.0100289 µM | 0.988 | 0.841
0.0316912 µM | 0.989 | 0.85
0.100144 µM | 0.987 | 0.832
0.316456 µM | 0.985 | 0.916
1 µM | 0.971 | 0.523

Conditions | GRmin | drug GRADE
U2OS [2] | -0.853 | –
U2OS [5] | – | 4.29

CC(=O)Nc1cccc(-n2c(=O)n(C3CC3)c(=O)c3c(Nc4ccc(I)cc4F)n(C)c(=O)c(C)c32)c1 [Trametinib]
Conditions | fractional viability, U2OS [1] | normalized growth rate inhibition value, U2OS [3]
0.000100578 µM | 0.978 | 0.839
0.000317827 µM | 0.974 | 0.677
0.00100433 µM | 0.965 | 0.696
0.00317369 µM | 0.951 | 0.569
0.0100289 µM | 0.915 | 0.582
0.0316912 µM | 0.732 | 0.319
0.100144 µM | 0.524 | 0.0761
0.316456 µM | 0.442 | 0.0524
1 µM | 0.466 | 0.0402

CC[C@]1(O)C[C@@H]2CN(CCc3c([nH]c4ccccc34)[C@@](C(=O)OC)(c3cc4c(cc3OC)N(C)[C@H]3[C@@](O)(C(=O)OC)[C@H](OC(C)=O)[C@]5(CC)C=CCN6CC[C@]43[C@@H]65)C2)C1 [Vinblastine]
Conditions | fractional viability, 0.00316 µM | fractional viability, 0.0316 µM | fractional viability, 0.316 µM | fractional viability, 3.16 µM | fractional viability, 31.6 µM | normalized growth rate inhibition value, 0.00316 µM | normalized growth rate inhibition value, 0.0316 µM | normalized growth rate inhibition value, 0.316 µM | normalized growth rate inhibition value, 3.16 µM | normalized growth rate inhibition value, 31.6 µM
U2OS [1] | 0.426 | 0.5 | 0.467 | 0.416 | 0.166 | – | – | – | – | –
U2OS [3] | – | – | – | – | – | 0.057 | 0.0629 | 0.0107 | -0.0225 | -0.258

Conditions | drug GRADE
U2OS [5] | 3.36
